The results in this text go back to patent US6500837B2, “Fused ring system containing indole as M4 selective aza-anthracene muscarinic receptor antagonists” (Warner-Lambert Company, priority 2000, dated 2002).

“And” between values parts separate entries of the source, which are not always exact repeats. Equal entries are not always repeated.

Settings in all cases: displacement of [3H]-NMS, membranes from transfected CHO cells; separate determinations in one cell
A general note: In a radioligand displacement assay an active substance lowers the binding of a labelled ligand.

The target in assay [1] is T1, human muscarinic receptor subtype M2 (Hm2) (Homo sapiens, UniProt P08172).
T1 sequence (P08172 1-466): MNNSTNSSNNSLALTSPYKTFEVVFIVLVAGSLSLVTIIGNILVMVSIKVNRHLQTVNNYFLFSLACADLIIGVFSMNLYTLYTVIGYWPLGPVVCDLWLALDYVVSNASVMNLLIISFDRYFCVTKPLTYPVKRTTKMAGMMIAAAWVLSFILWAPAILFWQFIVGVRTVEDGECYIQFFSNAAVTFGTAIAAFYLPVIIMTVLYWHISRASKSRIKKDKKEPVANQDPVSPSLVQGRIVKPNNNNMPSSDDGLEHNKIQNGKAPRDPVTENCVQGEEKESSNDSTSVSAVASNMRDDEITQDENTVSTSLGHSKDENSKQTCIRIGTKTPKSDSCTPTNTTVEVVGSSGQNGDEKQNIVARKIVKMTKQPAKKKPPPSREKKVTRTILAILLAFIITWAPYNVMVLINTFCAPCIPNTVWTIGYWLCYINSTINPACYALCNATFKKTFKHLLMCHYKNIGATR
The experiment in a line: [3H]-NMS receptor binding in CHO cell membranes, Hm2. The method, then: (§1) The compounds of Formula I have shown potent binding affinity for muscarinic receptors and are thus useful as muscarinicing antagonists. […] The compounds are evaluated in standard assays used to measure muscarinic receptor binding. Specifically, the compounds are evaluated for their binding affinity toward five human muscarinic receptor subtypes (M1-M5) by the method of Dorje et al., J. Pharm. Exp. Ther., 1991;256:727-733, incorporated herein by reference. The binding is determined by measuring the displacement of [^3H]-NMS binding using membranes from transfected Chinese hamster ovary (CHO) cells. All compounds are tested two to four times with duplicate tubes (SEM is ≦10% in all cases).

Assay [2] addresses human muscarinic receptor subtype M3 (Hm3) (Homo sapiens, UniProt P20309). The experiment in a line: [3H]-NMS receptor binding in CHO cell membranes, Hm3. The method, then: as §1
Assay [3] addresses T2, human muscarinic receptor subtype M5 (Hm5) (Homo sapiens, UniProt P08912).
T2 sequence (P08912 1-532): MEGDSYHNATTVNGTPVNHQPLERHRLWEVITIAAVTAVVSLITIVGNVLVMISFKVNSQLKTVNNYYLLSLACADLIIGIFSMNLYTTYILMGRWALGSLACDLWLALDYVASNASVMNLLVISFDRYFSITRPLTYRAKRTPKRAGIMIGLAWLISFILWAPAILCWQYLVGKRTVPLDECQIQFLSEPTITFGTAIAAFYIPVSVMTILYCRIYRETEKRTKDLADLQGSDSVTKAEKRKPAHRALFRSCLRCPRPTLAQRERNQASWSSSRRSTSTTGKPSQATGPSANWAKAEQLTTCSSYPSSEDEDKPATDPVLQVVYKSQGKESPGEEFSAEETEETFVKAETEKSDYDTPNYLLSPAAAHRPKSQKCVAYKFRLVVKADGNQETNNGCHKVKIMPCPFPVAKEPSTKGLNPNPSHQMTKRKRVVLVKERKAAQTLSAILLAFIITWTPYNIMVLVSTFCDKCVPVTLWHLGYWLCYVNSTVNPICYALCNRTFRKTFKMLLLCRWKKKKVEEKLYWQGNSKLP
The experiment in a line: [3H]-NMS receptor binding in CHO cell membranes, Hm5. The method, then: as §1

Assay [4] addresses T3, human muscarinic receptor subtype M4 (Hm4) (Homo sapiens, UniProt P08173).
T3 sequence (P08173 1-479): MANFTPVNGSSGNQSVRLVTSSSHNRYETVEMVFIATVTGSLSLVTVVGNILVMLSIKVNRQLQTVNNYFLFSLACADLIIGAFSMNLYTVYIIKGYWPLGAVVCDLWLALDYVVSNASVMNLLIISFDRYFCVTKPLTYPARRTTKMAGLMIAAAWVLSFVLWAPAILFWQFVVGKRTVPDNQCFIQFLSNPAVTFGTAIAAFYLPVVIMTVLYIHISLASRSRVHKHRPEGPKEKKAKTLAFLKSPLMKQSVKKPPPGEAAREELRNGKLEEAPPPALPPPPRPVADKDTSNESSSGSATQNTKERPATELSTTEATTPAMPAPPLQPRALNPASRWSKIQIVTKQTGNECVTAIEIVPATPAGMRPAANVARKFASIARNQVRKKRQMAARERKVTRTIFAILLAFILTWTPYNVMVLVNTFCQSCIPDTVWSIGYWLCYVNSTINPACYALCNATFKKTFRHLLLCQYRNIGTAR
In words: [3H]-NMS receptor binding in CHO cell membranes, Hm4. As for the experimental part: as §1

Assay [5] addresses T4, human muscarinic receptor subtype M1 (Hm1) (Homo sapiens, UniProt P11229).
T4 sequence (P11229 1-460): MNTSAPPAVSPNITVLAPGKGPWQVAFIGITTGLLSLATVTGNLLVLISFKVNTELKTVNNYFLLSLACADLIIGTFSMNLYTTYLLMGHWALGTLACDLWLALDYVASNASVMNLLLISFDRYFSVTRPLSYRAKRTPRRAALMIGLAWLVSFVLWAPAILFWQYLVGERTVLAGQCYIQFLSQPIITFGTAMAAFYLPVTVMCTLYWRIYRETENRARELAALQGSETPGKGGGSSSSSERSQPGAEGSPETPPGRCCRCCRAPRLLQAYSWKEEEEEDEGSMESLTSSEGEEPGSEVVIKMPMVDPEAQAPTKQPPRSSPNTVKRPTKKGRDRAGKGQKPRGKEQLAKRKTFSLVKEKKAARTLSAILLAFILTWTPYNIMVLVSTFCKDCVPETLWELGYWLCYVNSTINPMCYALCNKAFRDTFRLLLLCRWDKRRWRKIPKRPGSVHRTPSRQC
The experiment in a line: [3H]-NMS receptor binding in CHO cell membranes, Hm1. As for the experimental part:
as §1

Chain of human muscarinic receptor subtype M3 (Hm3) (P20309 whole entry): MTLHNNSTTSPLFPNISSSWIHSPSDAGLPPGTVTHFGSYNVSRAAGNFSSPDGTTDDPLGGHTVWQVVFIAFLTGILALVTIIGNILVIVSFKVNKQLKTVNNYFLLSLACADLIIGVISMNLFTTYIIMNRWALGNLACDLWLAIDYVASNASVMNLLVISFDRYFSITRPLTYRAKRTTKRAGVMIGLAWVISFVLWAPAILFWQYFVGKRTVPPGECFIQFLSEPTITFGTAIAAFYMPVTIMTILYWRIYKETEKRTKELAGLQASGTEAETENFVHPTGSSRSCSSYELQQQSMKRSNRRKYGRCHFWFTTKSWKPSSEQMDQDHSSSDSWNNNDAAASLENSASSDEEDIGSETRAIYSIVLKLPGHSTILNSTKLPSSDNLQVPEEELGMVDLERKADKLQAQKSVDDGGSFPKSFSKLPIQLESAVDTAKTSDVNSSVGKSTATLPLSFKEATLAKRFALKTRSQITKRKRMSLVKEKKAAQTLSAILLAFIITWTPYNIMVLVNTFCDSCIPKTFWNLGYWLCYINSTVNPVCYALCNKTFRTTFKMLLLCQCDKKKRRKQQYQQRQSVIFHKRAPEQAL

A word on the IC50: it is the concentration at which inhibition is half-maximal. Read a high IC50 as a need for much substance. In the case of `CCOC(=O)c1c(C)[nH]c2cc(Br)c3c(c12)CN1CCc2cc(OC)ccc2C1C3` (stereo not shown) [Compound 1, 5-Bromo-9-methoxy-2-methyl-6,11,12,13-tetrahydro-3H,6aH-3,12a-diaza-benzo[a]cyclopent[h]anthracene-1-carboxylic acid ethyl ester], the IC50 was 3 µM in assay [1]; > 10 µM and 20 µM in assay [2]; 5 µM and 4 µM in assay [3]; 3 µM and 0.6 µM in assay [4]; 0.4 µM in assay [5].

Regarding `CCCc1[nH]c2cc(Br)c3c(c2c1C(=O)OCC)CN1CCc2cc(OC)ccc2C1C3` (stereo not shown) [Compound 2, 5-Bromo-9-methoxy-2-propyl-6,11,12,13-tetrahydro-3H6aH-3,12a-diaza-benzo[a]cyclopent[h]anthracene-1-carboxylic acid ethyl ester], the IC50 in assay [1] is 0.8 µM and 4 µM; in assay [2], over 10 µM; in assay [3], 10 µM and 15 µM; in assay [4], 2 µM and 3 µM; in assay [5], 0.5 µM and 0.4 µM.

Turning to `CCCc1[nH]c2ccc3c(c2c1C(=O)OCC)CN1CCc2cc(OC)ccc2C1C3` (stereo not shown) [Compound 4, 9-Methoxy-2-propyl-6,11,12,13-tetrahydro-3H6aH-3,12a-diaza-benzo[a]cyclopent[h]anthracene-1-carboxylic acid ethyl ester], the IC50 in assay [1] is 20 µM and 15 µM; in assay [2], over 10 µM; in assay [4], over 10 µM; in assay [5], over 10 µM.

For `CCOC(=O)c1c(C)[nH]c2ccc3c(c12)CN1CCc2cc(OC)ccc2C1C3` (stereo not shown) [Compound 3, 9-methoxy-2-methyl-6,11,12,13-tetrahydro-3H,6aH-3,12a-diaza-benzo[a]cyclopent[h]anthracene-1-carboxylic acid ethyl ester], the IC50 in assay [1] was 25 µM; in assay [2], > 10 µM and 5 µM; in assay [3] it was 10 µM and 9 µM; in assay [4], > 10 µM and 20 µM; in assay [5], > 10 µM and 25 µM.
